#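 Interpolation was linear, between the two tested concentrations surrounding the appropriate level; five concentrations were tested over 48 hours in 96-well plates. TGI: concentration producing complete growth inhibition.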
# Assays:
# Assay in all cases: inhibition of tumour cell growth, NCI panel, 48 h
# U251 CNS = tested on: U251 CNS
# SR leukemia = tested on: SR leukemia
# KM20L2 colon = tested on: KM20L2 colon
# HCT-116 colon = tested on: HCT-116 colon
# EKVX NSCLC = tested on: EKVX NSCLC
# NCI-H522 lung = tested on: NCI-H522 lung
# IGROV1 ovarian = tested on: IGROV1 ovarian
# A549 NSCLC = tested on: A549 NSCLC
# MOLT-4 leukemia = tested on: MOLT-4 leukemia
# OVCAR-8 ovarian = tested on: OVCAR-8 ovarian
# LOX IMVI melanoma = tested on: LOX IMVI melanoma
# RPMI-8226 leukemia = tested on: RPMI-8226 leukemia
# OVCAR-3 ovarian = tested on: OVCAR-3 ovarian
# SNB-75 CNS = tested on: SNB-75 CNS
# UACC-257 melanoma = tested on: UACC-257 melanoma
# SK-MEL-5 melanoma = tested on: SK-MEL-5 melanoma
# 786-0 renal = tested on: 786-0 renal
# LXFL 529 NSCLC = tested on: LXFL 529 NSCLC
# HT29 colon = tested on: HT29 colon
# KM12 colon = tested on: KM12 colon
# ACHN renal = tested on: ACHN renal
# MALME-3M melanoma = tested on: MALME-3M melanoma
# HCC-2998 colon = tested on: HCC-2998 colon
# M19-MEL melanoma = tested on: M19-MEL melanoma
# SK-MEL-28 melanoma = tested on: SK-MEL-28 melanoma
# DLD-1 colon = tested on: DLD-1 colon
# SF-295 CNS = tested on: SF-295 CNS
# NCI-H460 lung = tested on: NCI-H460 lung
# HOP-92 NSCLC = tested on: HOP-92 NSCLC
# UO-31 renal = tested on: UO-31 renal
# SW-620 colon = tested on: SW-620 colon
# DMS 114 small cell lung = tested on: DMS 114 small cell lung
# NCI-H23 lung = tested on: NCI-H23 lung
# SK-OV-3 ovarian = tested on: SK-OV-3 ovarian
# HCT-15 colon = tested on: HCT-15 colon
# TK-10 renal = tested on: TK-10 renal
# SF-539 CNS = tested on: SF-539 CNS
# COLO 205 colon = tested on: COLO 205 colon
# HOP-62 NSCLC = tested on: HOP-62 NSCLC
# CCRF-CEM leukemia = tested on: CCRF-CEM leukemia
# SNB-19 CNS = tested on: SNB-19 CNS
# NCI-H226 lung = tested on: NCI-H226 lung
# SF-268 CNS = tested on: SF-268 CNS
# K-562 leukemia = tested on: K-562 leukemia
# HL-60(TB) leukemia = tested on: HL-60(TB) leukemia
# OVCAR-5 ovarian = tested on: OVCAR-5 ovarian
# HOP-18 NSCLC = tested on: HOP-18 NSCLC
# RXF 393 renal = tested on: RXF 393 renal
# M14 melanoma = tested on: M14 melanoma
# UACC-62 melanoma = tested on: UACC-62 melanoma
# SK-MEL-2 melanoma = tested on: SK-MEL-2 melanoma
# OVCAR-4 ovarian = tested on: OVCAR-4 ovarian
# SN12C renal = tested on: SN12C renal
# DMS 273 small cell lung = tested on: DMS 273 small cell lung
# CAKI-1 renal = tested on: CAKI-1 renal
# A498 renal = tested on: A498 renal
structure (smiles),measurement,setting,value
CCOC(=O)N1Cc2ccoc2C1,TGI,U251 CNS,> 100 µM
same,TGI,SR leukemia,> 100 µM
same,TGI,KM20L2 colon,> 100 µM
same,TGI,HCT-116 colon,> 100 µM
same,TGI,EKVX NSCLC,> 100 µM
same,TGI,NCI-H522 lung,> 100 µM
same,TGI,IGROV1 ovarian,> 100 µM
same,TGI,A549 NSCLC,> 100 µM
same,TGI,MOLT-4 leukemia,> 100 µM
same,TGI,OVCAR-8 ovarian,> 100 µM
same,TGI,LOX IMVI melanoma,> 100 µM
same,TGI,RPMI-8226 leukemia,> 100 µM
same,TGI,OVCAR-3 ovarian,> 100 µM
same,TGI,SNB-75 CNS,> 100 µM
same,TGI,UACC-257 melanoma,> 100 µM
same,TGI,SK-MEL-5 melanoma,> 100 µM
same,TGI,786-0 renal,> 100 µM
same,TGI,LXFL 529 NSCLC,> 100 µM
same,TGI,HT29 colon,> 100 µM
same,TGI,KM12 colon,> 100 µM
same,TGI,ACHN renal,> 100 µM
same,TGI,MALME-3M melanoma,> 100 µM
same,TGI,HCC-2998 colon,> 100 µM
same,TGI,M19-MEL melanoma,> 100 µM
same,TGI,SK-MEL-28 melanoma,> 100 µM
same,TGI,DLD-1 colon,> 100 µM
same,TGI,SF-295 CNS,> 100 µM
same,TGI,NCI-H460 lung,> 100 µM
same,TGI,HOP-92 NSCLC,> 100 µM
same,TGI,UO-31 renal,> 100 µM
same,TGI,SW-620 colon,> 100 µM
same,TGI,DMS 114 small cell lung,> 100 µM
same,TGI,NCI-H23 lung,> 100 µM
same,TGI,SK-OV-3 ovarian,> 100 µM
same,TGI,HCT-15 colon,> 100 µM
same,TGI,TK-10 renal,> 100 µM
same,TGI,SF-539 CNS,> 100 µM
same,TGI,COLO 205 colon,> 100 µM
same,TGI,HOP-62 NSCLC,> 100 µM
same,TGI,CCRF-CEM leukemia,> 100 µM
same,TGI,SNB-19 CNS,> 100 µM
same,TGI,NCI-H226 lung,> 100 µM
same,TGI,SF-268 CNS,> 100 µM
same,TGI,K-562 leukemia,> 100 µM
same,TGI,HL-60(TB) leukemia,> 100 µM
same,TGI,OVCAR-5 ovarian,> 100 µM
same,TGI,HOP-18 NSCLC,> 100 µM
same,TGI,RXF 393 renal,> 100 µM
same,TGI,M14 melanoma,> 100 µM
same,TGI,UACC-62 melanoma,> 100 µM
same,TGI,SK-MEL-2 melanoma,> 100 µM
same,TGI,OVCAR-4 ovarian,> 100 µM
same,TGI,SN12C renal,> 100 µM
same,TGI,DMS 273 small cell lung,> 100 µM
COC(=O)C1Cc2c([nH]c3ccccc23)C(c2ccccc2O)N1 (stereo not given),TGI,U251 CNS,> 100 µM
same,TGI,SR leukemia,> 100 µM
same,TGI,KM20L2 colon,> 100 µM
same,TGI,HCT-116 colon,> 100 µM
same,TGI,EKVX NSCLC,> 100 µM
same,TGI,NCI-H522 lung,> 100 µM
same,TGI,IGROV1 ovarian,> 100 µM
same,TGI,A549 NSCLC,> 100 µM
same,TGI,MOLT-4 leukemia,> 100 µM
same,TGI,OVCAR-8 ovarian,> 100 µM
same,TGI,LOX IMVI melanoma,> 100 µM
same,TGI,OVCAR-3 ovarian,> 100 µM
same,TGI,SNB-75 CNS,> 100 µM
same,TGI,UACC-257 melanoma,> 100 µM
same,TGI,SK-MEL-5 melanoma,> 100 µM
same,TGI,786-0 renal,> 100 µM
same,TGI,LXFL 529 NSCLC,> 100 µM
same,TGI,HT29 colon,> 100 µM
same,TGI,KM12 colon,> 100 µM
same,TGI,ACHN renal,> 100 µM
same,TGI,MALME-3M melanoma,> 100 µM
same,TGI,HCC-2998 colon,> 100 µM
same,TGI,SK-MEL-28 melanoma,> 100 µM
same,TGI,DLD-1 colon,> 100 µM
same,TGI,SF-295 CNS,> 100 µM
same,TGI,NCI-H460 lung,47.1 µM
same,TGI,HOP-92 NSCLC,> 100 µM
same,TGI,UO-31 renal,97.9 µM
same,TGI,SW-620 colon,> 100 µM
same,TGI,DMS 114 small cell lung,> 100 µM
same,TGI,NCI-H23 lung,> 100 µM
same,TGI,SK-OV-3 ovarian,> 100 µM
same,TGI,HCT-15 colon,> 100 µM
same,TGI,TK-10 renal,> 100 µM
same,TGI,SF-539 CNS,> 100 µM
same,TGI,COLO 205 colon,93.8 µM
same,TGI,CCRF-CEM leukemia,> 100 µM
same,TGI,SNB-19 CNS,> 100 µM
same,TGI,NCI-H226 lung,> 100 µM
same,TGI,CAKI-1 renal,> 100 µM
same,TGI,K-562 leukemia,> 100 µM
same,TGI,HL-60(TB) leukemia,75.4 µM
same,TGI,OVCAR-5 ovarian,> 100 µM
same,TGI,HOP-18 NSCLC,> 100 µM
same,TGI,M14 melanoma,> 100 µM
same,TGI,A498 renal,> 100 µM
same,TGI,UACC-62 melanoma,> 100 µM
same,TGI,SK-MEL-2 melanoma,> 100 µM
same,TGI,OVCAR-4 ovarian,> 100 µM
same,TGI,SN12C renal,> 100 µM
same,TGI,DMS 273 small cell lung,> 100 µM

# Source: PubChem BioAssay (NCI)
